# Measured values as given in US20220331274A1, “METHODS OF TREATING CANCER” (Inspirna, Inc., priority 2019, published 2022).
# How the values were obtained:
# [1] = target: LXRβ (Homo sapiens, UniProt P55055); assay: cell-based biosensor assay
# [2] = target: LXRα (Homo sapiens, UniProt Q13133); assay: cell-based biosensor assay; conditions: read-out: median effective concentration (EC50) for LXRα
# [3] = tested on: mouse melanoma; assay: syngeneic mouse melanoma model; type: in vivo
# [4] = tested on: cancer cells; assay: cancer cell invasion in vitro; type: cell-based
# [5] = tested on: endothelial cells; assay: endothelial recruitment in vitro; type: cell-based
# [6] = tested on: MDSCs; assay: reduction of MDSCs in circulation and in tumors; type: in vivo
# [7] = tested on: ApoE; assay: ApoE gene expression induction in cancer cells; type: cell-based; conditions: compared to control cells
# [8] = tested on: TNBC metastasis; assay: mouse model of TNBC metastasis; conditions: in vivo
# [9] = safety pharmacology, ECG and heart rate in dogs; type: in vivo
# [10] = oral PK study in Sprague-Dawley rats; type: in vivo
# [11] = oral PK study in male Beagle dogs; type: in vivo; conditions: dog, plasma
# [12] = target: CYP3A4 (Homo sapiens, UniProt P08684); assay: in vitro CYP metabolism; type: in vitro ADME
# [13] = target: CYP2E1 (Homo sapiens, UniProt P05181); assay: in vitro CYP metabolism; type: in vitro ADME
# [14] = target: CYP2C9 (Homo sapiens, UniProt P11712); assay: in vitro CYP metabolism; type: in vitro ADME
# [15] = target: CYP2C19 (Homo sapiens, UniProt P33261); assay: in vitro CYP metabolism; type: in vitro ADME
# [16] = target: CYP2J2 (Homo sapiens, UniProt P51589); assay: in vitro CYP metabolism; type: in vitro ADME
# [17] = target: CYP2C8 (Homo sapiens, UniProt P10632); assay: in vitro CYP450 inhibition; type: in vitro ADME; conditions: read-out: 50% inhibitory concentration [IC50] CYP2C8
# [18] = target: 2B6 (Homo sapiens, UniProt P20813); assay: in vitro CYP450 inhibition; type: in vitro ADME
# [19] = target: 2A6 (Homo sapiens, UniProt P11509); assay: in vitro CYP450 inhibition; type: in vitro ADME
# [20] = target: 2C9 (Homo sapiens, UniProt P11712); assay: in vitro CYP450 inhibition; type: in vitro ADME
# [21] = target: 2E1 (Homo sapiens, UniProt P05181); assay: in vitro CYP450 inhibition; type: in vitro ADME
# [22] = tested on: CYP1A2; assay: CYP induction in primary cultures of cryopreserved hepatocytes; type: in vitro ADME
# [23] = target: organic anion transporting polypeptide (OATP) 1B1 (Homo sapiens, UniProt Q9Y6L6); assay: uptake transporter inhibition in vitro; type: in vitro ADME; conditions: read-out: IC50 OATP1B1
# [24] = target: OAT1 (Homo sapiens, UniProt Q4U2R8); assay: transporter inhibition in vitro; type: in vitro ADME
# [25] = target: OCT2 (Homo sapiens, UniProt O15244); assay: transporter inhibition in vitro; type: in vitro ADME
# [26] = pre-clinical toxicity studies; type: in vivo
# Chain of LXRβ (P55055 whole entry): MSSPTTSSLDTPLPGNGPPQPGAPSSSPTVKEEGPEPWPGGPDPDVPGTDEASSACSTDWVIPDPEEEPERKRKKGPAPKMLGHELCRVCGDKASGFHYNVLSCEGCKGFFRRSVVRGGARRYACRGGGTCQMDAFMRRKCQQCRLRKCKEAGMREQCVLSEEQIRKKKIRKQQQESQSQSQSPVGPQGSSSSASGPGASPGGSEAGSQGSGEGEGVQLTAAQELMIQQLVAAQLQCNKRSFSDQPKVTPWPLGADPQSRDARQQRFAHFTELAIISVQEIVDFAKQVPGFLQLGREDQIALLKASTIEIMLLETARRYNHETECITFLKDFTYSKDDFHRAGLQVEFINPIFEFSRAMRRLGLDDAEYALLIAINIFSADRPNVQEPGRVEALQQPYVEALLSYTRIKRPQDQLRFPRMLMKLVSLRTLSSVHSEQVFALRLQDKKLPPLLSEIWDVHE
# Chain of CYP2J2 (P51589 whole entry): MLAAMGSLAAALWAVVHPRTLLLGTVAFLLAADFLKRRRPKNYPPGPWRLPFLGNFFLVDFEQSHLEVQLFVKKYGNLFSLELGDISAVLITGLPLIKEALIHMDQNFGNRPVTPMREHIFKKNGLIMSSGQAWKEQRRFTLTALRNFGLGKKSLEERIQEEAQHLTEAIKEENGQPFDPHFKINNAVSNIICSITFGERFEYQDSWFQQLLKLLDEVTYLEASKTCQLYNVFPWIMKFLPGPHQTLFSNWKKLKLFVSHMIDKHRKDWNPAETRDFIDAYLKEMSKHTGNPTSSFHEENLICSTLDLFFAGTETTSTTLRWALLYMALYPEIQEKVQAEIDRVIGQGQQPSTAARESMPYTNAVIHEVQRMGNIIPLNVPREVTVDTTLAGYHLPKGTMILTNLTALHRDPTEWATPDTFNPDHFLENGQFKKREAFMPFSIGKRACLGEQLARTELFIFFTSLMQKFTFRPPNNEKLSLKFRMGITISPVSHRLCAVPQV
# Chain of 2E1 (P05181 whole entry): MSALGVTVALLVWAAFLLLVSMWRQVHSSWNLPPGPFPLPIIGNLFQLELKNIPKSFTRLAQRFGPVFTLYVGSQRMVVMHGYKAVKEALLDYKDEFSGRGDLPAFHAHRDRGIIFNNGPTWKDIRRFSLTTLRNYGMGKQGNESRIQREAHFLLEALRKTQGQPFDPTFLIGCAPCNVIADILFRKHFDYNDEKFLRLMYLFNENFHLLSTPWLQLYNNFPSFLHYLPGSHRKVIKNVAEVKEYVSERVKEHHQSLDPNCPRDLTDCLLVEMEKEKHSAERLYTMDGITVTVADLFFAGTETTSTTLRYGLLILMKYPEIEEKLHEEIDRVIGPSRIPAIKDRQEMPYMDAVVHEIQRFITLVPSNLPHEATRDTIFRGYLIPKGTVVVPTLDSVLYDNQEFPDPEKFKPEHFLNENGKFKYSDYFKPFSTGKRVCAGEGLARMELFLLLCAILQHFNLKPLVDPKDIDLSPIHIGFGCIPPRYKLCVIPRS
# Chain of CYP2E1 (P05181 whole entry): as above
# Chain of CYP2C8 (P10632 whole entry): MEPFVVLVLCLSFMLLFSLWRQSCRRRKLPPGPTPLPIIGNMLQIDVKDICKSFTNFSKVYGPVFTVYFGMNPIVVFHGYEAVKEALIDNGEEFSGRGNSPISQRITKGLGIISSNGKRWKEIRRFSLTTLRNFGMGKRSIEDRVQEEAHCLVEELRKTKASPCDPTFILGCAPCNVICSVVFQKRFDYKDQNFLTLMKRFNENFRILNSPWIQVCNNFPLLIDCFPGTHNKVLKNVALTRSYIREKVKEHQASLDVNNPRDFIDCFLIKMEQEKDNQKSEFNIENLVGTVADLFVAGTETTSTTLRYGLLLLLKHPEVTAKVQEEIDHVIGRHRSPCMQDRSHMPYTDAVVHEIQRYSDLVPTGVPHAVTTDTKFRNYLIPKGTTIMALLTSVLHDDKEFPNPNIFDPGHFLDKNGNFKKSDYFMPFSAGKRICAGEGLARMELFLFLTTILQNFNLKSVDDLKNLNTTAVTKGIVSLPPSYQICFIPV
# Chain of OCT2 (O15244 whole entry): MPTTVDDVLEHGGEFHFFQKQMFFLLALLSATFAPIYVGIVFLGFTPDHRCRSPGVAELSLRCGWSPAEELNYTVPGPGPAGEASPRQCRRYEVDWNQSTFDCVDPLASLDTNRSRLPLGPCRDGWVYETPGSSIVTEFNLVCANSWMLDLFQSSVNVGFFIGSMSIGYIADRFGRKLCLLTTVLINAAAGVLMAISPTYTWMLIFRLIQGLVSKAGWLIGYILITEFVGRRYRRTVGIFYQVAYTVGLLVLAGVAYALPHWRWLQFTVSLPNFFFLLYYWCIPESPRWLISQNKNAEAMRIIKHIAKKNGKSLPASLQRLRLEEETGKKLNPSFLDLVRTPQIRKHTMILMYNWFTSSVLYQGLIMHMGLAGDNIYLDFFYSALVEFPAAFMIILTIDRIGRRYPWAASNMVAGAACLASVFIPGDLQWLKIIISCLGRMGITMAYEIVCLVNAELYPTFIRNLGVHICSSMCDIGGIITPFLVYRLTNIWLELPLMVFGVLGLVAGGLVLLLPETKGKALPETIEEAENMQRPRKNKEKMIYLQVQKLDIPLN
# Chain of organic anion transporting polypeptide (OATP) 1B1 (Q9Y6L6 whole entry): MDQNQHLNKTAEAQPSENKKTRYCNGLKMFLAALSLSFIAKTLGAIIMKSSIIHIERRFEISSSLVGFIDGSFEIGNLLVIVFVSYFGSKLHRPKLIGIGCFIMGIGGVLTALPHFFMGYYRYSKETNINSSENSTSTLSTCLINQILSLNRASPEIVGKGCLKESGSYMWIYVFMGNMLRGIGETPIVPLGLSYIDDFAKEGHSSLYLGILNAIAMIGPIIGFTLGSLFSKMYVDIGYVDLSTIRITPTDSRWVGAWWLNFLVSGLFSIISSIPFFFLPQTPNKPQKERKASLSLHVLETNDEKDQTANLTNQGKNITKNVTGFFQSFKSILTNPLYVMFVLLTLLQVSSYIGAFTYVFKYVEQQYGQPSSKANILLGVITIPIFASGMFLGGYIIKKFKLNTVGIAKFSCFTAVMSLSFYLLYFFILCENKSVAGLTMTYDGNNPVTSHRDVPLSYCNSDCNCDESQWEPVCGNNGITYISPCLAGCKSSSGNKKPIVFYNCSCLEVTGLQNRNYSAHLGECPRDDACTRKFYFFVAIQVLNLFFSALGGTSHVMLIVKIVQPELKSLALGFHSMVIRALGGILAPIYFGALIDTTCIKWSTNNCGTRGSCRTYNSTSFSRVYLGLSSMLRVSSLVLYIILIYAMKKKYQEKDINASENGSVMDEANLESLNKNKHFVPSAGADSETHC
# Chain of 2B6 (P20813 whole entry): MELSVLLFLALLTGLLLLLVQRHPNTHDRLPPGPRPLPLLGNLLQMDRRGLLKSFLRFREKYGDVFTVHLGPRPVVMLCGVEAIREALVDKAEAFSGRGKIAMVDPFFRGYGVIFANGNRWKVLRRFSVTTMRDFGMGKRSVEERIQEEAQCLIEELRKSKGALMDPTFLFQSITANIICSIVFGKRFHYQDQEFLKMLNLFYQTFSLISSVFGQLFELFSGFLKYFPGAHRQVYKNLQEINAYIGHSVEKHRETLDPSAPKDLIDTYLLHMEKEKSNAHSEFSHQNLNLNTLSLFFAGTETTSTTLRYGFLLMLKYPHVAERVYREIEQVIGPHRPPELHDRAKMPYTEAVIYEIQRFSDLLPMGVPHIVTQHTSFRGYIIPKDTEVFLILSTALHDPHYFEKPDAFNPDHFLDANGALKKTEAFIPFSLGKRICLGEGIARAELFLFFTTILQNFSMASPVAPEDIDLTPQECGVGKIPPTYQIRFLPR
# Chain of 2A6 (P11509 whole entry): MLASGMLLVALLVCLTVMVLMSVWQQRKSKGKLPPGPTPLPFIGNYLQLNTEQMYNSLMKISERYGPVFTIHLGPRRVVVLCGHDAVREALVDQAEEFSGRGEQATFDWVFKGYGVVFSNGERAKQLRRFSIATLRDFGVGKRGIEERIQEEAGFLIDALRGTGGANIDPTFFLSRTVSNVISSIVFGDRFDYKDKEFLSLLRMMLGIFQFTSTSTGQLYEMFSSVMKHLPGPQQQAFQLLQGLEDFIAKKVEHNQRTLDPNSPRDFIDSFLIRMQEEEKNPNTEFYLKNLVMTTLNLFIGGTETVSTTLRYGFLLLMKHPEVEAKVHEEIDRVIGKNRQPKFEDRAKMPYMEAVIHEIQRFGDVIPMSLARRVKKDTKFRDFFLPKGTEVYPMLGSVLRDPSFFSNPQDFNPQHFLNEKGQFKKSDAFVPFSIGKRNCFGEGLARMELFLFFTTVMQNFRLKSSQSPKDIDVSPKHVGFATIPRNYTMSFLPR
# Chain of CYP3A4 (P08684 whole entry): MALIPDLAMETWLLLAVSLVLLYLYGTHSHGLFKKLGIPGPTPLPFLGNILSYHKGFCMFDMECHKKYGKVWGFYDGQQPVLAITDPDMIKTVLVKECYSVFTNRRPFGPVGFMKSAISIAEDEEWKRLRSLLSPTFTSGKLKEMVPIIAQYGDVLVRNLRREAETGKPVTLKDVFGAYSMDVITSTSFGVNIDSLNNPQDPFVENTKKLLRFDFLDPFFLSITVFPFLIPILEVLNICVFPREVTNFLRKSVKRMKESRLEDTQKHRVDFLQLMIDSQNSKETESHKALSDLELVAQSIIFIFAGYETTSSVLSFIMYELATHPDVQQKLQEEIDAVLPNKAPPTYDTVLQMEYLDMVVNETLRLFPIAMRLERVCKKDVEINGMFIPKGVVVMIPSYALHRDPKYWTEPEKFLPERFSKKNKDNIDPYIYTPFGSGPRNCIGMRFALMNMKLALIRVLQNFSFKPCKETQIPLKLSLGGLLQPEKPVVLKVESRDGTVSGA
compound,measurement,setting,value
"C[C@H](CCOc1cccc(CC(=O)O)c1)N(Cc1cccc(C(F)(F)F)c1Cl)CC(c1ccccc1)c1ccccc1 [2-[3-[(3R)-3-[[2-chloro-3-(trifluoromethyl)phenyl]methyl-(2,2-diphenylethyl)amino]butoxy]phenyl]acetic acid]",specificity for LXRβ than LXRα,[1]; from EC50 values,approximately 2.9 fold
same,EC50,[1]; read-out: median effective concentration (EC50) for LXRβ,118 nM
same,EC50,[2],336 nM
same,tumor growth,"[3]; 50 mg/kg in combination with anti-PD1 therapy, tumors otherwise resistant to PD-1 inhibition",significant suppression of tumor growth
same,inhibition of tumor growth,[3]; combination with anti-CTLA-4 antibody relative to either therapy alone,superior
same,tumor growth inhibition,"[3]; in combination with an anti-PD-1 antibody, model otherwise not responsive to anti-PD-1 antibody",> 80%
same,anti-tumor efficacy,"[3]; in combination with dacarbazine, compared to either treatment alone",> 80%
same,suppression of cancer cell invasion,[4],~45%
same,inhibition of endothelial recruitment,[5],~50%
same,reduction of MDSCs in circulation,[6]; in circulation,~40%
same,reduction of MDSCs in tumors,[6]; in tumors,> 60%
same,ApoE gene expression induction,[7],3 fold
same,inhibition of metastatic spread of cancer cells,[8],~9 fold
same,compound-related effects on qualitative ECG parameters (PR or QTc intervals or QRS duration),[9],no
same,mean heart rate,"[9]; Day 1 post-dose interval, significant in females at 150 (stepped down to 100) mg/kg/day, not considered adverse",dose related decrease in mean heart rate
same,half-life,"[10]; Sprague-Dawley, rat, plasma, po, female rats, read-out: mean apparent oral t½ (converted)",6.5 h
same,"clearance, female versus male rats","[10]; all dose levels, higher systemic exposure in females",cleared at a lower rate in female rats compared to males
same,Tmax,"[10]; both sexes, rat, plasma, po, Sprague-Dawley rats, males and females",4 to 8 h
same,bioavailability,"[10]; rat, plasma, Sprague-Dawley rats, 30 mg/kg oral dose, read-out: combined, mean % F",~31%
same,Tmax,[11]; oral dose,4 to 8 h
same,bioavailability,"[11]; po, depending on dose and formulation, read-out: mean % F",18 to 30%
same,half-life,"[11]; po, read-out: mean apparent oral t½",5 to 6.7 h
same,metabolism by CYP3A4,[12],metabolized predominantly
same,substrate for CYP2E1,[13],a substrate
same,substrate for CYP2C9,[14],a substrate
same,substrate for CYP2C19,[15],a substrate
same,substrate for CYP2J2,[16],possibly
same,IC50,[17],7500 nM
same,IC50,[18],15000 nM
same,inhibition of 2A6,[19],very weakly inhibited
same,inhibition of 2C9,[20],very weakly inhibited
same,inhibition of 2E1,[21],very weakly inhibited
same,induction of CYP1A2,[22],did not induce
same,IC50,[23],99 nM
same,inhibition at 50 µM,[24],< 50%
same,inhibition at 50 µM,[25],< 50%
same,liver function,[26],Liver function abnormalities have been observed
